In paper PMC12733166, “Enhancing Cytosolic Internalization of [^177Lu]Lu–iPSMA in Prostate Cancer Cells: The Effect of Conjugating a GRP78 Inhibitor to the Radiotherapeutic Molecule” (International Journal of Molecular Sciences, 2025):
Starred links: 1 amine or outer side, 2 acyl side, 3 side chain; linkers in the order of their positions; H or OH if unused. Non-standard residues stand in square brackets, D forms with d. Residues, ends and D or L forms follow the SMILES beside them. *: point of attachment. X2 = O=C(O)CC[C@@H](NC(=O)N[C@H](CCCCNC(=O)[C@H](Cc1ccc2ccccc2c1)NC(=O)CCCN1C(=O)C[C@@H](*)C1=O)C(=O)O)C(=O)O; DOTA = O=C(O)CN1CCN(CC(=O)O)CCN(CC(=O)*)CCN(CC(=O)O)CC1; X1 = O=C(c1ccc(NN[*:1])nc1)[*:2]

What was measured:
[1] = tested on: LNCaP cells (PSMA+, CS-GRP78+); experiment: Cytosolic and nuclear internalization (subcellular fractionation) in LNCaP cells; type: cell-based, human; conditions: LNCaP cells 1 × 10^5/200 µL, 37 kBq/4 nmol, 1 h, 37 °C; for Cytosolic internalization: gamma counting of cytosolic fraction; for Nuclear internalization: gamma counting of nuclear extract
Procedure: (§1) PC-3 (CRL-1435; ATCC, Manassas, VA, USA) and LNCaP human prostate cancer cells (CRL-1740; ATCC, USA) were cultured in Roswell Park Memorial Institute medium (RPMI; Sigma-Aldrich, USA) at 37 °C, 85% humidity, 5% CO2, and 10% fetal bovine serum.
(§2) Assays were performed to evaluate the cellular uptake and subcellular distribution of [^177Lu]Lu–iPSMA–iGRP78 and the control monomers [^177Lu]Lu–iPSMA and [^177Lu]Lu–iGRP78 in two prostate cancer cell lines: LNCaP (PSMA+, SC-GRP78+) and PC3 (PSMA^−, CS-GRP78^−). Cells (1 × 10^5/200 µL) were incubated with the radiopharmaceutical (37 kBq/4 nmol) for 1 h at 37 °C to assess the distribution between the cytoplasm and nucleus.
Following incubation, tubes were measured with a NaI(Tl) crystal scintillation gamma-counter (NML Inc., TX, USA) to determine 100% of the initial activity. The tubes were centrifuged at 250× g for 5 min, and the supernatant was withdrawn. The activity in the pellet was measured to determine the percentage of cellular uptake (surface uptake) relative to the initial activity. Next, the nuclei and cytoplasm of the cells were separated using a Nuclear Extraction Kit (Chemicon International, Inc., Temecula, CA, USA). To prepare for fractionation, the cells were first washed with 1 mL of 0.2 M acetic acid/0.5 M NaCl. The tubes were centrifuged at 250× g for 5 min, washed with phosphate-buffered saline (PBS), and then centrifuged again to ensure thorough removal of extracellular components.
(§3) After centrifugation, the cell pellet, which corresponds to the internalized activity, was quantified using a gamma counter. The radioactivity measured in the pellet was defined as 100% of the internalized activity.
The pellet was resuspended in cytoplasmic lysis buffer with dithiothreitol and a protease inhibitor cocktail to maintain protein stability during lysis. Mechanical disruption was performed by passing the suspension through a 27-gauge needle multiple times using a syringe to ensure complete cell breakdown. The resulting lysate underwent centrifugation at 8000× g for 20 min at 4 °C. The supernatant, representing the cytosolic fraction, was collected and analyzed for radioactivity via gamma counting.
The remaining pellet, containing the nuclear fraction, was resuspended in nuclear extraction buffer supplemented with dithiothreitol and a protease inhibitor cocktail. Nuclear disruption was carried out before centrifuging at 16,000× g for 5 min at 4 °C. The supernatant contained the nuclear extract, while the membrane components remained in the pellet.
(§4) Radioactivity measurements were conducted on both the nuclear extract and the membrane pellet fractions using a gamma counter. The percentage of activity within each subcellular compartment was calculated for each time point, allowing for evaluation of the distribution of [^177Lu]Lu–iPSMA–iGRP78 and control monomers [^177Lu]Lu–iPSMA and [^177Lu]Lu–iGRP78 between the cytoplasmic and nuclear compartments of prostate cancer cells over time.

[2] = tested on: PC3 cells (PSMA−, CS-GRP78−); experiment: Cytosolic and nuclear internalization (subcellular fractionation) in PC3 cells; type: cell-based, human; conditions: PC3 cells 1 × 10^5/200 µL, 37 kBq/4 nmol, 1 h, 37 °C
Procedure: as §1, §2
Following incubation, tubes were measured with a NaI(Tl) crystal scintillation gamma-counter (NML Inc., TX, USA) to determine 100% of the initial activity. The tubes were centrifuged at 250× g for 5 min, and the supernatant was withdrawn. The activity in the pellet was measured to determine the percentage of cellular uptake (surface uptake) relative to the initial activity. […]
as §3
The pellet was resuspended in cytoplasmic lysis buffer with dithiothreitol and a protease inhibitor cocktail to maintain protein stability during lysis. […] The supernatant, representing the cytosolic fraction, was collected and analyzed for radioactivity via gamma counting. […]
as §4

[3] = tested on: LNCaP cells; experiment: Cytotoxicity / cell viability by flow cytometry (Muse Count & Viability kit); type: cell-based, human; conditions: LNCaP 5 × 10^4 cells/200 µL, 1.4 MBq, 5 h (15 Gy/h whole-cell dose); triplicate (n = 3) from two independent experiments, mean ± SD
Procedure: The effects of radioligands on LNCaP cell viability were evaluated using advanced flow cytometry techniques. The radioligands tested were [^177Lu]Lu–iPSMA–iGRP78, [^177Lu]Lu–iPSMA, and [^177Lu]Lu–iGRP78. This evaluation was conducted to assess their impact on the survival of prostate cancer cells. Cell viability was measured using the Count & Viability kit (Muse®). Prior to analysis, the Muse® cell analyzer (Merck Millipore, Burlington, MA, USA) was calibrated with the verification kit to ensure its accuracy. First, a fresh, untreated LNCaP cell sample was analyzed to establish reference parameters, including cell size, granularity, and natural cell viability. To accurately distinguish between live and dead cells, an aliquot of the same cell population was treated with 0.05% Triton X-100. This treatment defined the dead cell detection window in the analyzer. Next, a specific detection window was established for LNCaP cells to differentiate between viable and non-viable cells during analysis accurately. For each experimental group, a cell suspension containing 5 × 10^4 cells in 200 µL was prepared. The cells were then treated as follows: 1.4 MBq of (a) [^177Lu]Lu–iPSMA–iGRP78, (b) [^177Lu]Lu–iPSMA, (c) [^177Lu]Lu–iGRP78, and (d) untreated. After five hours of treatment (15 Gy/h at whole-cell dose), the cells were mixed with 450 µL of viability reagent and incubated for 5 min at room temperature in the dark. All measurements were performed in triplicate (n = 3) from two independent experiments to ensure reliability and reproducibility. To determine the radiation absorbed dose rate to the whole cell (15 Gy/h), the total number of nuclear transformations (N) was calculated. This value was normalized to the administered activity unit (MBq·s/MBq) by integrating the activity (A(t)) from time zero to five hours. Next, the absorbed dose was calculated by multiplying N by the dose factor (DF: from cell to cell) (Gy/Bq·s), as determined by MIRDcell software, considering the crossfire absorbed dose (version 2.1).

[4] = Stability in PBS (radiochemical purity by radio-HPLC); type: physicochemical; conditions: 10 µL (18.5 MBq) in 1 mL PBS, 3 h, 37 °C; reverse-phase radio-HPLC; n = 3
Procedure: The quality control assessed bacterial endotoxins, sterility, pH, and appearance, following the general methods of the Mexican Pharmacopeia. Radiochemical purity was evaluated by reversed-phase radio-high-performance liquid chromatography (radioHPLC) ( LC-40DxR, Shimadzu, Kyoto, Japan). A shim-pack GIST C18 column (Shimadzu: 4.6 mm × 25 cm, 5 μm particle size) with a linear gradient from 100% to 10% of mobile phase A (0.1% TFA aqueous solution) and from 0% to 90% of phase B (0.1% TFA in acetonitrile) in 20 min at 1 mL/min. The retention time of [^177Lu]Lu–iPSMA–iGRP78 was 17.4 ± 0.3 min, and 3.7 ± 0.2 min for ^177LuCl3. Radiochemical purities of [^177Lu]Lu–iPSMA (tR = 15.2 ± 0.2 min) and [^177Lu]Lu–iGRP78 (tR = 19.2 ± 0.4 min) were also verified to be higher than 95%.
To assess the in vitro stability of [^177Lu]Lu-iPSMA-iGRP78, 10 µL (18.5 MBq) of the radiopharmaceutical was diluted in either 1 mL of PBS or 1 mL of human serum (NIST-909c certified human serum sample; Sigma-Aldrich, St. Louis, MO, USA) (n = 3). The mixtures were incubated for 3 h at 37 °C. Then, 0.5 mL of acetonitrile was added to the human serum samples to precipitate the proteins, and the mixtures were centrifuged at 500× g for 10 min. The radiochemical purity of the human serum supernatants and PBS solution samples was analyzed by reverse-phase radio-HPLC, as described above.

[5] = tested on: LNCaP cells (PSMA+, CS-GRP78+); experiment: Saturation binding assay on LNCaP cells; set-up: species or system human; conditions: 1-100 nM radioligand, 4 °C, 2 h, non-specific binding with 1 μM PMPA, n = 3 from two independent experiments; for Kd: GraphPad Prism, read-out: Dissociation constant (Kd)
Procedure: as §1
The affinity comparison between the [^177Lu]Lu–iPSMA–iGRP78 dimer and [^177Lu]Lu–iPSMA monomer was performed in LNCaP cells. For the saturation binding analysis, cells were seeded on 96-well plate cultures ([…]) and incubated at 37 °C under a CO2 atmosphere for 24 h, then the plates were placed on ice for 30 min. Next, they were incubated at 4 °C for 2 h with increasing concentrations (from 1nM to 100 nM) of the monomer [^177Lu]^natLu-iPSMA or the dimer [^177Lu]^natLu-iPSMA-iGRP78. Finally, cells were washed with PBS followed by the addition of 1M NaOH for cell lysis. This solution was measured for radioactivity using a NaI(Tl) gamma counter (NML Inc., Littleton, CO, USA). Non-specific binding of [^177Lu]Lu–iPSMA–iGRP78 and [^177Lu]Lu–iPSMA was determined under the same experimental conditions described above but in the presence of PMPA (2-(phosphonomethyl) pentanedioic acid) at a final concentration of 1 μM. The dissociation constant (Kd) and maximum number of binding sites (Bmax) were calculated by a lineal regression analysis with data (n = 3) from two independent experiments using the GraphPad Prism software (v. 10.6.1).

Row | Structure (SMILES) | Cytosolic internalization [1] | Nuclear internalization [1] | Uptake in cellular cytosol and nucleus [2] | Dead cells [3] [%] | Radiochemical purity, unchanged after incubation in PBS [4] | Maximum number of binding sites (Bmax) [5] [nM] | Kd [5] [nM]
1 | CC[C@@H](C)[C@@H](NC(=O)[C@@H](Cc1c[nH]c2ccccc12)NC(=O)[C@H]1CCCN1C(=O)[C@@H](Cc1ccccc1)NC(=O)[C@H](NC(=O)[C@@H](Cc1c[nH]c2ccccc12)NC(=O)[C@@H](CS)NC(=O)c1ccc(NNC(=O)CN2CCN(CC(=O)O)CCN(CC(=O)O)CCN(CC(=O)O)CC2)nc1)[C@H](C)CC)C(=O)N[C@H](CCC(N)=O)C(=O)N[C@H](CC(C)C)C(=O)O [[^177Lu]Lu–iGRP78, metal not drawn] ({DOTA}-[X1][dC][dW][dI][dF][dP][dW][dI][dQ][dL]-OH) | highest internalization values | highest internalization values | low uptake | 68.93 ± 5.05 | exceeding 97% | – | –
2 | O=C(O)CC[C@@H](NC(=O)N[C@H](CCCCNC(=O)[C@H](Cc1ccc2ccccc2c1)NC(=O)c1ccc(NNC(=O)CN2CCN(CC(=O)O)CCN(CC(=O)O)CCN(CC(=O)O)CC2)nc1)C(=O)O)C(=O)O [[^177Lu]Lu–iPSMA, metal not drawn] | 6.45 ± 0.60% | no uptake in the cell nucleus | low uptake | 38.63 ± 6.13 | exceeding 97% | 0.032 | 2.25
3 | CC[C@@H](C)[C@@H](NC(=O)[C@@H](Cc1c[nH]c2ccccc12)NC(=O)[C@H]1CCCN1C(=O)[C@@H](Cc1ccccc1)NC(=O)[C@H](NC(=O)[C@@H](Cc1c[nH]c2ccccc12)NC(=O)[C@@H](CS[C@@H]1CC(=O)N(CCCC(=O)N[C@@H](Cc2ccc3ccccc3c2)C(=O)NCCCC[C@@H](NC(=O)N[C@H](CCC(=O)O)C(=O)O)C(=O)O)C1=O)NC(=O)c1ccc(NNC(=O)CN2CCN(CC(=O)O)CCN(CC(=O)O)CCN(CC(=O)O)CC2)nc1)[C@H](C)CC)C(=O)N[C@H](CCC(N)=O)C(=O)N[C@H](CC(C)C)C(=O)O [[^177Lu]Lu–iPSMA–iGRP78, metal not drawn] ({DOTA}-[X1][dC](X2)[dW][dI][dF][dP][dW][dI][dQ][dL]-OH) | 10.44 ± 2.43% | 4.81 ± 0.94% | low uptake | 69.93 ± 4.85 | exceeding 97% | 0.048 | 1.88
